Measurements: patent US11155586B2, “Cystine knot scaffold platform” (Genentech, Inc., priority 2015, dated 2021)
Positions of bridges follow the written chain, without caps; N, C: chain ends. Residues, ends and D or L forms follow the SMILES beside them.

Target: T1, hVEGF-A (Homo sapiens, UniProt P15692)
T1 sequence (P15692 207-395): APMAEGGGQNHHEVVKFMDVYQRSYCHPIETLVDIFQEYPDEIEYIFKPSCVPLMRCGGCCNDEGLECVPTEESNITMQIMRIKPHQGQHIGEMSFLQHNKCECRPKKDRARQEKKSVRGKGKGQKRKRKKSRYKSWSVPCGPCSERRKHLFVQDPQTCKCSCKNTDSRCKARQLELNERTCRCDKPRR
Experiment: KDR-CHO VEGF assay to determine cellular IC50 (VEGF mediated Tyr phosphorylation of KDR)
Type: cell-based
Description: KDR-CHO cells (CHO cells stably transfected with gD tagged-KDR) were grown in cell growth medium (DMEM/Ham's F-12, 10% diafiltered FBS (GIBCO catalog no. 26400), 25 mM HEPES, 2 mM L-GLUTAMAX™). For VEGF stimulation assay, 5×10^4 cells/well were plated in 100 μl of cell plating medium (DMEM/Ham's F-12, 0.2% BSA, 0.25% diafiltered FBS, 25 mM HEPES, 2 mM L-GLUTAMAX™) in 96-well tissue culture plate and incubated at 37° C. overnight. The medium was replaced with 100 I1 of serum-free cell stimulation medium (DMEM/Ham's F-12, 0.5% BSA, 25 mM HEPES) and cells were incubated at 37° C. for 2 hr. One hour before stimulation, the medium was replaced with 50 I1 of serum-free cell stimulation medium. Concurrently, VEGF (50 ng/ml for hVEGF, 100 ng/ml for mVEGF and rVEGF) was pre-incubated with titrated amount of CKP or anti-VEGF in 50 μl of serum-free cell stimulation medium at 37° C. for 1 hour and added to the cells. The cells were stimulated for 15 min at 37 C and the medium is removed. The cells were lysed with 130 I1 of ice-cold cell lysis buffer (150 mM NaCl, 50 mM HEPES, 0.5% Triton-X 100, HALT protease and phosphatase inhibitor cocktail (ThermoFisher Scientific, Inc. catalog no. 78444), 5 mM EDTA). VEGF mediated Tyr phosphorylation of KDR was determined by ELISA-based assay. Briefly, MAXISORP™ 96 well plates (ThermoFisher Scientific, Inc. catalog no. 439454) were coated with 100 I1 of anti-gD antibody diluted in PBS (1 μg/ml) at 4° C. overnight and washed three times with washing buffer (PBS, 0.05% TWEEN®20, pH 7.4). The plates were blocked with 300 I1 of blocking buffer (PBS, 0.5% BSA) at room temperature for 1 hour followed by washing three times with washing buffer. The above KDR-CHO cell lysate (100 μl) was added to each well and incubated at room temperature for 2 hours. The plates were washed four times with washing buffer followed by incubation with 100 I1 of 0.5 μg/ml biotin-conjugated anti-phosphotyrosine (clone 4G10, Millipore catalog no. 16-103) in blocking buffer at room temperature for 2 hours. After washing four times, the plates were incubated with 100 I1 of HRP-conjugated streptavidin in blocking buffer at room temperature for 30 min. After washing four times, the plates were developed with 100 I1 of TMB substrate (BD Biosciences) at room temperature for 20-30 min and stopped by addition of 50 μl of H2SO4 solution. The optical density of each well was determined using a microplate reader set to 450 nm.

Row | SMILES | FOLD IMPROVEMENT RELATIVE TO VARIANT 9.54.90 (Table 36, from cellular IC50) | FOLD IMPROVEMENT RELATIVE TO VARIANT 9.54.90 (Table 38, from cellular IC50)
1 | CC[C@H](C)[C@H](NC(=O)[C@@H]1CSSC[C@H](NC(=O)CN)C(=O)N[C@@H](CC(N)=O)C(=O)N[C@@H]([C@@H](C)CC)C(=O)N[C@@H](CCSC)C(=O)N[C@@H](CC(C)C)C(=O)N2CCC[C@H]2C(=O)N[C@@H](Cc2ccccc2)C(=O)N[C@@H](Cc2c[nH]c3ccccc23)C(=O)NCC(=O)N[C@H]2CSSC[C@H](NC(=O)[C@H](CCC(=O)O)NC(=O)[C@H](Cc3ccccc3)NC(=O)[C@H](CC(=O)O)NC(=O)[C@H](CCCNC(=N)N)NC(=O)CNC2=O)C(=O)N[C@@H](CCSC)C(=O)N[C@@H](CCC(N)=O)C(=O)N[C@@H]([C@@H](C)O)C(=O)N1)C(=O)N[C@H]1CSSC[C@@H](C(=O)NCC(=O)O)NC(=O)[C@H](CO)NC(=O)[C@H](CCC(N)=O)NC(=O)[C@H](Cc2ccc(O)cc2)NC(=O)[C@H](Cc2ccc(O)cc2)NC(=O)[C@H](CCC(N)=O)NC1=O [9.54.90.25] (H-GCNIMLPFWGCGRDFECMQTCICQYYQSCG-OH; disulfide 2-21, 11-17, 23-29; N-terminus and C-terminus assumed) | 1.07 | –
2 | CC[C@H](C)[C@@H]1NC(=O)[C@H](Cc2ccccc2)NC(=O)[C@@H]2CSSC[C@H](NC(=O)CNC(=O)[C@H](Cc3c[nH]c4ccccc34)NC(=O)[C@H](Cc3ccccc3)NC(=O)[C@@H]3CCCN3C(=O)[C@H](CC(C)C)NC(=O)[C@H](CCSC)NC(=O)[C@H]([C@@H](C)CC)NC(=O)[C@H](CC(N)=O)NC(=O)[C@@H](NC(=O)CN)CSSC[C@@H](C(=O)N[C@H](C(=O)N[C@H]3CSSC[C@@H](C(=O)NCC(=O)O)NC(=O)[C@H](CO)NC(=O)[C@H](CCC(N)=O)NC(=O)[C@H](Cc4ccc(O)cc4)NC(=O)[C@H](Cc4ccc(O)cc4)NC(=O)[C@H](CCC(N)=O)NC3=O)[C@@H](C)CC)NC(=O)[C@H](CC(N)=O)NC1=O)C(=O)NCC(=O)N[C@@H](CCCNC(=N)N)C(=O)N[C@@H](CC(=O)O)C(=O)N[C@@H](Cc1ccccc1)C(=O)N[C@@H](CCC(=O)O)C(=O)N2 [9.54.90.44] (H-GCNIMLPFWGCGRDFECFINCICQYYQSCG-OH; disulfide 2-21, 11-17, 23-29; N-terminus and C-terminus assumed) | 1.16 | –
3 | CC[C@H](C)[C@H](NC(=O)[C@@H]1CSSC[C@H](NC(=O)CN)C(=O)N[C@@H](CC(N)=O)C(=O)N[C@@H]([C@@H](C)CC)C(=O)N[C@@H](CCSC)C(=O)N[C@@H](CC(C)C)C(=O)N2CCC[C@H]2C(=O)N[C@@H](Cc2ccc(O)cc2)C(=O)N[C@@H](Cc2c[nH]c3ccccc23)C(=O)NCC(=O)N[C@H]2CSSC[C@H](NC(=O)[C@H](CCC(=O)O)NC(=O)[C@H](Cc3ccccc3)NC(=O)[C@H](CC(=O)O)NC(=O)[C@H](CCCNC(=N)N)NC(=O)CNC2=O)C(=O)N[C@@H](Cc2ccccc2)C(=O)N[C@@H](Cc2ccc(O)cc2)C(=O)N[C@@H](CCC(=O)O)C(=O)N1)C(=O)N[C@H]1CSSC[C@@H](C(=O)NCC(=O)O)NC(=O)[C@H](CO)NC(=O)[C@H](CCC(N)=O)NC(=O)[C@H](Cc2ccc(O)cc2)NC(=O)[C@H](Cc2ccc(O)cc2)NC(=O)[C@H](CCC(N)=O)NC1=O [9.54.90.62.F8Y] (H-GCNIMLPYWGCGRDFECFYECICQYYQSCG-OH; disulfide 2-21, 11-17, 23-29; N-terminus and C-terminus assumed) | – | 1.18
4 | CC[C@H](C)[C@H](NC(=O)[C@@H]1CSSC[C@H](NC(=O)CN)C(=O)N[C@@H](CC(N)=O)C(=O)N[C@@H]([C@@H](C)CC)C(=O)N[C@@H](CCSC)C(=O)N[C@@H](CC(C)C)C(=O)N2CCC[C@H]2C(=O)N[C@@H](Cc2ccccc2)C(=O)N[C@@H](Cc2c[nH]c3ccccc23)C(=O)NCC(=O)N[C@H]2CSSC[C@H](NC(=O)[C@H](CCC(=O)O)NC(=O)[C@H](Cc3ccccc3)NC(=O)[C@H](CC(=O)O)NC(=O)[C@H](CCCNC(=N)N)NC(=O)CNC2=O)C(=O)N[C@@H](Cc2ccccc2)C(=O)N[C@@H](Cc2ccc(O)cc2)C(=O)N[C@@H](CCC(=O)O)C(=O)N1)C(=O)N[C@H]1CSSC[C@@H](C(=O)NCC(=O)O)NC(=O)[C@H](CO)NC(=O)[C@H](CCC(N)=O)NC(=O)[C@H](Cc2ccc(O)cc2)NC(=O)[C@H](Cc2ccc(O)cc2)NC(=O)[C@H](CCC(N)=O)NC1=O [9.54.90.62] (H-GCNIMLPFWGCGRDFECFYECICQYYQSCG-OH; disulfide 2-21, 11-17, 23-29; N-terminus and C-terminus assumed) | 1.47 | 1.47
5 | CC[C@H](C)[C@H](NC(=O)[C@@H]1CSSC[C@H](NC(=O)CN)C(=O)N[C@@H](CC(N)=O)C(=O)N[C@@H]([C@@H](C)CC)C(=O)N[C@@H](CCSC)C(=O)N[C@@H](CC(C)C)C(=O)N2CCC[C@H]2C(=O)N[C@@H](Cc2ccccc2)C(=O)N[C@@H](Cc2c[nH]c3ccccc23)C(=O)NCC(=O)N[C@H]2CSSC[C@H](NC(=O)[C@H](CCC(=O)O)NC(=O)[C@H](Cc3ccccc3)NC(=O)[C@H](CC(=O)O)NC(=O)[C@H](CCCNC(=N)N)NC(=O)CNC2=O)C(=O)N[C@@H](CCSC)C(=O)N[C@@H](CCC(=O)O)C(=O)N[C@@H](CCC(N)=O)C(=O)N1)C(=O)N[C@H]1CSSC[C@@H](C(=O)NCC(=O)O)NC(=O)[C@H](CO)NC(=O)[C@H](CCC(N)=O)NC(=O)[C@H](Cc2ccc(O)cc2)NC(=O)[C@H](Cc2ccc(O)cc2)NC(=O)[C@H](CCC(N)=O)NC1=O [9.54.90.67] (H-GCNIMLPFWGCGRDFECMEQCICQYYQSCG-OH; disulfide 2-21, 11-17, 23-29; N-terminus and C-terminus assumed) | 1.23 | 1.23
6 | CC[C@H](C)[C@@H]1NC(=O)[C@H](CC(N)=O)NC(=O)[C@@H](N)CSSC[C@@H](C(=O)N[C@H](C(=O)N[C@H]2CSSC[C@@H](C(=O)O)NC(=O)[C@H](CO)NC(=O)[C@H](CCC(N)=O)NC(=O)[C@H](Cc3ccc(O)cc3)NC(=O)[C@H](Cc3ccc(O)cc3)NC(=O)[C@H](CCC(N)=O)NC2=O)C(C)C)NC(=O)CNC(=O)[C@H](C)NC(=O)[C@H](CC(C)C)NC(=O)[C@@H]2CSSC[C@H](NC(=O)CNC(=O)[C@H](Cc3c[nH]c4ccccc34)NC(=O)[C@H](Cc3ccc(O)cc3)NC(=O)[C@@H]3CCCN3C(=O)[C@H](CC(C)C)NC(=O)[C@H](CCSC)NC1=O)C(=O)NCC(=O)N[C@@H](CCCNC(=N)N)C(=O)N[C@@H](CC(=O)O)C(=O)N[C@@H](Cc1ccccc1)C(=O)N[C@@H](CCC(=O)O)C(=O)N2 [9.54.90.F7Y.Δ2G] (H-CNIMLPYWGCGRDFECLAGCVCQYYQSC-OH; disulfide 1-20, 10-16, 22-28; N-terminus and C-terminus assumed) | – | 0.44
7 | CC[C@H](C)[C@@H]1NC(=O)[C@H](CC(N)=O)NC(=O)[C@@H](NC(=O)CN)CSSC[C@@H](C(=O)N[C@H](C(=O)N[C@H]2CSSC[C@@H](C(=O)NCC(=O)O)NC(=O)[C@H](CO)NC(=O)[C@H](CCC(N)=O)NC(=O)[C@H](Cc3ccc(O)cc3)NC(=O)[C@H](Cc3ccc(O)cc3)NC(=O)[C@H](CCC(N)=O)NC2=O)C(C)C)NC(=O)CNC(=O)[C@H](C)NC(=O)[C@H](CC(C)C)NC(=O)[C@@H]2CSSC[C@H](NC(=O)CNC(=O)[C@H](Cc3c[nH]c4ccccc34)NC(=O)[C@H](Cc3ccc(O)cc3)NC(=O)[C@@H]3CCCN3C(=O)[C@H](CC(C)C)NC(=O)[C@H](CCSC)NC1=O)C(=O)NCC(=O)N[C@@H](CCCNC(=N)N)C(=O)N[C@@H](CC(=O)O)C(=O)N[C@@H](Cc1ccccc1)C(=O)N[C@@H](CCC(=O)O)C(=O)N2 [9.54.90.F8Y] (H-GCNIMLPYWGCGRDFECLAGCVCQYYQSCG-OH; disulfide 2-21, 11-17, 23-29; N-terminus and C-terminus assumed) | – | 0.85
